Laboratory results taken from patent publication US6593306B1, “Methods for modulation and inhibition of telomerase” (Board of Regents, The University of Texas Systems, priority 1995, dated 2003).
Values joined by “and” are separate entries in the source; they are usually repeats but may differ in a detail not shown here. Equal values may be shown once. Values belong to the compound of their own block, whether it stands above or below them.

Assays:
Assay type in all cases: biochemical
[1] = target: T1, human cancer telomerase (Homo sapiens, UniProt O14746); assay: Nucleoside triphosphate as telomerase substrate, dGTP replaced in modified reaction; conditions: modified assay; 1 mM dTTP, 3.12 μM [α-32P]dATP
T1 construct: endogenous in cells; host or cells: human cancer cells
T1 sequence (O14746 whole entry): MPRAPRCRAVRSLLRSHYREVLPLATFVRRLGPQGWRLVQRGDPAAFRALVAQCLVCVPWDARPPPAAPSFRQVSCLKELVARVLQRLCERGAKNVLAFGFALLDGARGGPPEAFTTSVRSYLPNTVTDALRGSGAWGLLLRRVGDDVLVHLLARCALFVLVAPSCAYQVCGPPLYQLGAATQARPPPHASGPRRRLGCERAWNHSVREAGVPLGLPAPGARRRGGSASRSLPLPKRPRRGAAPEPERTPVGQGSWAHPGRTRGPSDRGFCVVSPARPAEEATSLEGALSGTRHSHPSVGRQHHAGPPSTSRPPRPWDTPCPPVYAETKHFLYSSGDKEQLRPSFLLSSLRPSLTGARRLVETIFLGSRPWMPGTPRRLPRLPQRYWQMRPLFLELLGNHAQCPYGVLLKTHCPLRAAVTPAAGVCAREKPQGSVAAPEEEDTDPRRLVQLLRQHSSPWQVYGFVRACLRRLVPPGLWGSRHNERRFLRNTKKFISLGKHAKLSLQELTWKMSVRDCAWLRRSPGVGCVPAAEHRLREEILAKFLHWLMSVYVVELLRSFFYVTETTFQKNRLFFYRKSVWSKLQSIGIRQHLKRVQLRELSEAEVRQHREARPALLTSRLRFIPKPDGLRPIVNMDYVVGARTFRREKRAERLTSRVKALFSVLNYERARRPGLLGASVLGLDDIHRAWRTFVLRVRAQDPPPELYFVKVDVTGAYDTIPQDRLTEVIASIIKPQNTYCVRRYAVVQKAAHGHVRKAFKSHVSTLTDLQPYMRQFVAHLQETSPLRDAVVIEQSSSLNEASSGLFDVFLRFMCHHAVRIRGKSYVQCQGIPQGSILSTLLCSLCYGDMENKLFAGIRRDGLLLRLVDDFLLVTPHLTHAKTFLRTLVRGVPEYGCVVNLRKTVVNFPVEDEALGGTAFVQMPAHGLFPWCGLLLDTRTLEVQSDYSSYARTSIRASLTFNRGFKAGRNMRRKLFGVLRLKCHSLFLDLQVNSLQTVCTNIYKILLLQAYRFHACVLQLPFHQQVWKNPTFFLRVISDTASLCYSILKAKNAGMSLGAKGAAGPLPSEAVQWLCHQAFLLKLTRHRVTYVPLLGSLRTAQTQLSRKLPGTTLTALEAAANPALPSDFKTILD
T1 sequence (O60832 whole entry partner): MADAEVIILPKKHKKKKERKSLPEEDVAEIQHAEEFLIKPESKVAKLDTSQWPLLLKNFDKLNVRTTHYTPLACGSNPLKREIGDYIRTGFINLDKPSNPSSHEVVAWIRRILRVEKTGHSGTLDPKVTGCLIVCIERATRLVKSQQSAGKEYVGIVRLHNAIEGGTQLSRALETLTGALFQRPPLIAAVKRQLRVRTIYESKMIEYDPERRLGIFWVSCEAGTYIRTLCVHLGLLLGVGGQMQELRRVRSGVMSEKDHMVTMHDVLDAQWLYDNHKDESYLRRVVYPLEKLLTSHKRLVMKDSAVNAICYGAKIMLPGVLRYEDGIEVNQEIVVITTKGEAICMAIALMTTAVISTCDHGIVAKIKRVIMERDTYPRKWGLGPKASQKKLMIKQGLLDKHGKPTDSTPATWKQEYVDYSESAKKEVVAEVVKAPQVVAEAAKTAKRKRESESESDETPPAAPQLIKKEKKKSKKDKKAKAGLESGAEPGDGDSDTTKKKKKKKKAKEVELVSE
T1 sequence (Q9NPE3 whole entry partner): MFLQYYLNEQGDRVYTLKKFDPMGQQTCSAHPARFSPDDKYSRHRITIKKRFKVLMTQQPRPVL
T1 sequence (Q9NX24 whole entry partner): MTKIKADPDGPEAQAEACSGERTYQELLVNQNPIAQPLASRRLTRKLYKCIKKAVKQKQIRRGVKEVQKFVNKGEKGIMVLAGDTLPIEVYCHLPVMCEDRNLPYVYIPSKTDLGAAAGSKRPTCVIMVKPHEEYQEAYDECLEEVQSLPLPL
T1 sequence (Q9NY12 whole entry partner): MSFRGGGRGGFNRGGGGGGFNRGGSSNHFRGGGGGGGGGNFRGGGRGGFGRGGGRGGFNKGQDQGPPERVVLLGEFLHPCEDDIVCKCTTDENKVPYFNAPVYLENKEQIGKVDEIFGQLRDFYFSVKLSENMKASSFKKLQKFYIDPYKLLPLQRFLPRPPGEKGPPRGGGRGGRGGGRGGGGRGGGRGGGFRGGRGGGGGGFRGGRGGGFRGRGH

[2] = target: T2, human 293 cell telomerase (Homo sapiens, UniProt O14746); assay: Conventional telomerase assay (32P-dGTP as radiolabel substrate); conditions: for Inhibition of 293 Telomerase, Conventional Assay *dGTP: up to 2 mM
T2 construct: with 20 μl of S100 enzyme extract; endogenous in cells; host or cells: 293 cells (transformed human embryonic kidney), S100 extract
T2 sequence (O14746 whole entry): as the sequence (O14746 whole entry) above
T2 sequence (O60832 whole entry partner): as the sequence (O60832 whole entry partner) above
T2 sequence (Q9NPE3 whole entry partner): as the sequence (Q9NPE3 whole entry partner) above
T2 sequence (Q9NX24 whole entry partner): as the sequence (Q9NX24 whole entry partner) above
T2 sequence (Q9NY12 whole entry partner): as the sequence (Q9NY12 whole entry partner) above
Description: (§1) Telomerase was prepared from transformed human embryonic kidney 293 cell line. Human embryonic kidney 293 cells were grown in Joklik's modified MEM niedium (Sigma, St Louis, Mo.) supplemented with 5% fetal bovine serum at 37° C. in a humidified atmosphere with 5% CO2. The cells were subcultured at 1-2×10^5 cells/ml twice a week. When the cells grew to approximately 1×10^6 cells/ml, the cells (˜2×10^9 cells) were centrifuged and transferred into polypropylene centrifuge (50 ml) tubes and kept on ice. The cells were then centrifuged in a (Beckman GS-6R) centrifuge at 1200 RPM for 10 minutes at 4° C., and resuspended in PBS. The washed cells were resuspended in 15 ml Hypobuffer Mix (10 mM HEPES, pH 8.0, 3 mM KCl, 1 mM MgCl2, 1 mM dithiothreitol, 1 μM leupeptin, 0.1 mM PMSF, 10 μM pepstatin, 0.83 μg/ml chymostatin, 0.83 μg/ml antipain, and 43.2 units/ml RNase Guard) and centrifuged. The cell pellets were resuspended in 0.75×volumes Hypobuffer [Hypobuffer Mix+40 units/ml RNase Guard (Pharmacia, N.J.) to allow the cells to swell. The cell suspensions were homogenized to allow the telomerase to “leak” into the cytosolic fraction. The lysate was then poured into new, autoclaved, 3 ml polyallomer ultracentrifuge tubes and centrifuged at 100,000×g for 1 hour at 4° C. A top lipid layer was carefully removed and discarded, and the supernatant was collected. 1/50 of the volume of 5 M NaCl was added to the clear supernatant fluid to achieve a final concentration of 0.1 M. Sterile glycerol was added until the final glycerol concentration was 20%. The enzyme solution was aliquoted into Eppendorf tubes and quickly frozen in liquid nitrogen and stored at −70° C.
The assay is based on the ability of the telomerase enzyme in the S100 fractions to recognize an 18-base DNA primer with the DNA sequence (TTAGGG)3. DNA polymerization initiates from the 3′-OH group of the oligonucleotide. By reading from its complementary internal RNA template, telomerase adds a repeated set of 5′-TTAGGG-3′ to the original 18-base primer. Non-synchronous “starts” and “terminations” among the different enzyme complexes result in a degenerative set of different length DNA primers occurring in 6-base increments. Incorporation of [α-^32P]dGTP at the guanine positions of the 5′-TTAGGG-3′ sequence allows the newly synthesized DNA fragments to be visualized by autoradiography. The resulting image forms the characteristic “ladder” structure that is used to identify telomerase activity. The images are scanned using a phosphoimager or laser densitometer (Molecular Dynamics, Sunnyvale, Calif.). Comparisons of the total volumes under the corresponding peaks are used to quantitate the total amount of [α-^32P] incorporated in the primer extension reaction.
The telomerase assay was initiated by mixing 20 μl of 2×reaction mix (100 mM Tris-OAc, pH 8.5, 100 mM KOAc, 10 mM β-mercaptoethanol, 2 mM spermidine, 2 mM MgCl2, 2 mM dATP, 2 mM dTTP, 2 μM oligo primer, potential inhibitors of interest at the appropriate concentration, and 50 μCi [α^32-P]dGTP) with 20 μl of S100 enzyme extract. The reaction mixture was then incubated at 30° C. for 1 hour. The reaction was stopped by incubating sequentially with 50 μl of the stop solution (10 mM Tris pH 7.5, 20 mM EDTA, 0.1 mg/ml RNase A) and 50 μl of deproteinase solution (10 mM Tris pH 7.5, 0.5% SDS, 0.3 mg/ml Proteinase K). The mixture was extracted with 50% phenol/50% chloroform (v/v). The DNA was then precipitated by adding 2.5×volumes of cold EtOH and letting it stand overnight at −70° C. The DNAs were separated on an 8% polyacrylamide/7M urea denaturing gel at 1600 V for 1.5 hours. The gel was dried and exposed to Kodak XAR-5 film to gel in −70° C. Typical autoradiographic exposures required 3-14 days.

[3] = target: T1, human cancer telomerase; assay: Nucleoside triphosphate as telomerase substrate, dATP replaced in conventional reaction; conditions: for incorporation into telomeric ladders, replacing dATP: conventional assay, 0.125-2 mM tested; for Substrate of 293 Telomerase: dATP analogs
Text: As described in Section 2, telomerase catalyzes the incorporation of dATP, dTTP and [α-^32P]dGTP into a (TTAGGG)3 primer. In order to determine whether dATP analog can be incorporated into telomere, native dATP in the standard telomerase reaction is replaced with various concentrations of dATP analogs. Following the reaction, telomeric products are isolated and analyzed as described in Section 2. Similarly, native dTTP in the standard telomerase reaction can be replaced by a structurally modified dTTP analog to test whether the dTTP analog can be used as a telomerase substrate.

[4] = target: T2, human 293 cell telomerase; assay: Modified telomerase assay (32P-dATP as radiolabeled substrate); conditions: for Inhibition of 293 cell telomerase, modified assay: competing radioactive nucleotide 3.12 μM [α32P]dATP
Description: as §1
In the conventional telomerase assay, the concentrations of both non-radiolabeled nucleotides, dATP and dTTP, are 1 mM, and the concentration of the radiolabeled [^32P]dGTP is 1.56 μM. Because of the high concentration of dATP and dTTP, the standard assay may not be suitable for determining the potential telomerase inhibition of any “Adenine or Thymine” analogs. […] All other chemicals and reaction conditions are identical to the conventional assay.

[5] = target: T3, human telomerase (Homo sapiens, UniProt O14746); assay: Cell-free telomerase inhibition, conventional or modified assay not stated; conditions: for IC50: Summary values, assay variant not stated, read-out: IC50
T3 construct: telomerase in S100 extracts of transformed human fetal kidney tumor 293 cells (a processive telomerase); endogenous in cells; host or cells: human cells, (S100 extract)
T3 sequence (O14746 whole entry): as the sequence (O14746 whole entry) above
T3 sequence (O60832 whole entry partner): as the sequence (O60832 whole entry partner) above
T3 sequence (Q9NPE3 whole entry partner): as the sequence (Q9NPE3 whole entry partner) above
T3 sequence (Q9NX24 whole entry partner): as the sequence (Q9NX24 whole entry partner) above
T3 sequence (Q9NY12 whole entry partner): as the sequence (Q9NY12 whole entry partner) above
Description: Selected nucleoside triphosphates were tested in one or both of the “conventional” or “modified” telomerase assays described in Methods using the human processive and the CHO non-processive telomerases. Initially, three chain-terminators were selected: 2′,3′-dideoxythymidine triphosphate (ddTTP), 3′-fluoro-2′,3′-dideoxythymidine triphosphate (F-ddTTP), and 3′-azido-2′-, 3′-dideoxythymidine triphosphate (AZ-ddTTP) as prototype agents to investigate whether they could inhibit telomerase activity. The three compounds are dTTP analogs without a 3′-OH group for subsequent chain elongation. They may either incorporate into the telomere sequence and terminate further chain elongation or compete directly with dTTP for the substrate binding site in the telomerase reaction. In either case, telomerase activity is inhibited.

[6] = 0.125 mM, read-out: % of Control
[7] = 0.25 mM, read-out: % of Control
[8] = [α-32P]dGTP 1.56 μM, TTP and dATP 1 mM

incorporation into telomeric ladders, replacing dGTP [1]: incorporation
SMILES: Nc1nc2c(ccn2[C@H]2C[C@H](O)[C@@H](COP(=O)(O)OP(=O)(O)OP(=O)(O)O)O2)c(=S)[nH]1 [Compound 8, 6-Thio-7-deaza-2′-deoxyguanosine Triphosphate]

% of Control ([2]; 0.125 mM): 70% | % of Control ([2]; 0.25 mM): 72% | % of Control ([2]; 0.5 mM): 88% | % of Control ([2]; 1.0 mM): 98% | % of Control ([2]; 2.0 mM): 99% | Inhibition of 293 Telomerase, Conventional Assay *dGTP [2]: No Inhibition (Up to 2 mM) | incorporation into telomeric ladders, replacing dATP [3]: incorporated | % of Control ([4]; 0.125 mM): 6% | % of Control ([4]; 0.25 mM): 1.7% | % of Control ([4]; 0.5 mM): 0% | % of Control ([4]; 1.0 mM): 0% | % of Control ([4]; 2 mM): 0% | Inhibition of 293 cell telomerase, modified assay [4]: concentration-dependent inhibition
SMILES: Nc1ncnc2c1ncn2[C@H]1C[C@H](O)[C@@H](COP(=O)(O)OP(=O)(O)CP(=O)(O)O)O1 [NA004, 2′-Deoxyadenosine-5′-β,γ-Methylene Triphosphate]
Substrate of 293 Telomerase [3]: Replace dATP Is a substrate No substrate inhibition

SMILES: Nc1ncnc2c1ncn2[C@H]1C[C@H](O)[C@@H](COP(O)(=S)OP(=O)(O)OP(=O)(O)O)O1 (stereo partly drawn) [NA006, 2′-Deoxyadenosine-5′—O—(1-Thio-Triphosphate)]
remaining activity at 125 µM [2, 6]: 120% | remaining activity at 250 µM [2, 7]: 103% | remaining activity at 500 µM ([2]; 0.5 mM, read-out: % of Control): 103% | remaining activity at 1000 µM ([2]; 1.0 mM, read-out: % of Control): 100% | remaining activity at 2000 µM ([2]; 2.0 mM, read-out: % of Control): 113% | Inhibition of 293 Telomerase, Conventional Assay *dGTP [2]: No Inhibition (up to 2 mM) | incorporation into telomeric ladders, replacing dATP [3]: incorporated | Substrate of 293 Telomerase [3]: Is a substrate No substrate inhibition | remaining activity at 125 µM [4, 6]: 0% | remaining activity at 250 µM [4, 7]: 0% | remaining activity at 500 µM ([4]; 0.5 mM, read-out: % of Control): 0% | remaining activity at 1000 µM ([4]; 1.0 mM, read-out: % of Control): 0% | remaining activity at 2000 µM ([4]; 2 mM, read-out: % of Control): 0% | Inhibition of 293 cell telomerase, modified assay [4]: concentration-dependent inhibition

remaining activity at 125 µM [2, 6]: 118% | remaining activity at 250 µM [2, 7]: 116% | remaining activity at 500 µM ([2]; 0.5 mM, read-out: % of Control): 141% | remaining activity at 1000 µM ([2]; 1.0 mM, read-out: % of Control): 126% | remaining activity at 2000 µM ([2]; 2.0 mM, read-out: % of Control): 133% | Inhibition of 293 Telomerase, Conventional Assay *dGTP [2]: No Inhibition (up to 2 mM) | inhibition of human telomerase activity ([5]; 1 mM): inhibited | remaining activity at 125 µM [4, 6]: 0% | remaining activity at 250 µM [4, 7]: 0% | remaining activity at 500 µM ([4]; 0.5 mM, read-out: % of Control): 0% | remaining activity at 1000 µM ([4]; 1.0 mM, read-out: % of Control): 0% | remaining activity at 2000 µM ([4]; 2 mM, read-out: % of Control): 0%
SMILES: Nc1ncnc2c1ncn2[C@H]1CC[C@@H](COP(=O)(O)OP(=O)(O)OP(=O)(O)O)O1 [NA007, 2′,3′-Dideoxyadenosine-5′-Triphosphate]
incorporation into telomeric ladders, replacing dATP [3]: no apparent NA007 incorporation was detected | Substrate of 293 Telomerase [3]: No product formed using (TTAGGG)^3 primer

SMILES: Nc1nc2c(ncn2[C@H]2C[C@H](O)[C@@H](COP(O)(=S)OP(=O)(O)OP(=O)(O)O)O2)c(=O)[nH]1 (stereo partly drawn) [NA013, 2′-Deoxyguanosine-5′-O-(1-thiotriphosphate)]
remaining activity at 125 µM [2, 6]: 75% | remaining activity at 250 µM [2, 7]: 47% | remaining activity at 500 µM ([2]; 0.5 mM, read-out: % of Control): 0% | remaining activity at 1000 µM ([2]; 1.0 mM, read-out: % of Control): 0% | remaining activity at 2000 µM ([2]; 2.0 mM, read-out: % of Control): 0% | IC50 ([2]; 293 cell telomerase): < 125 µM | Inhibition of 293 Telomerase, Conventional Assay *dGTP [2]: concentration-dependent inhibition | IC50 [5]: 81.5 µM | incorporation into telomeric ladders, replacing dGTP [1]: incorporated

remaining activity at 12.5 µM ([2]; 0.0125 mM, read-out: % of Control): 0% | remaining activity at 25 µM ([2]; 0.025 mM, read-out: % of Control): 0% | remaining activity at 50 µM ([2]; 0.05 mM, read-out: % of Control): 0% | remaining activity at 100 µM ([2]; 0.1 mM, read-out: % of Control): 0% | remaining activity at 200 µM ([2]; 0.2 mM, read-out: % of Control): 0% | remaining activity at 500 µM ([2]; 0.5 mM, read-out: % of Control): 0% | remaining activity at 1000 µM ([2]; 1.0 mM, read-out: % of Control): 0% | IC50 [2, 8]: < 125 µM | concentration at which telomerase activity is completely inhibited ([2]; lowest concentration tested): ≤ 12.5 µM
SMILES: Nc1nc2c(ncn2[C@H]2CC[C@@H](COP(=O)(O)OP(=O)(O)OP(=O)(O)O)O2)c(=O)[nH]1 [NA020, 2′,3′-Dideoxyguanosine-5′-Triphosphate]
incorporation into telomeric ladders, replacing dGTP [1]: no apparent NA020 incorporation was detected

IC50 [2, 8]: 59 µM and < 100 µM | Inhibition of 293 Telomerase, Conventional Assay *dGTP [2]: concentration-dependent inhibition | concentration above which no telomerase activity was detected ([3]; dATP replaced, 1 mM TTP, 1.56 μM [α-32P]dGTP): > 1.5 mM | IC50 [5]: 78.5 µM | remaining activity at 1 µM ([4]; 1.0 μM, read-out: % of Control): 69% | remaining activity at 2.5 µM ([4]; 2.5 μM, read-out: % of Control): 46% | remaining activity at 5 µM ([4]; 5.0 μM, read-out: % of Control): 57% | remaining activity at 7.5 µM ([4]; 7.5 μM, read-out: % of Control): 40% | remaining activity at 10 µM ([4]; 10 μM, read-out: % of Control): 23% | remaining activity at 25 µM ([4]; 25 μM, read-out: % of Control): 4% | remaining activity at 50 µM ([4]; 50 μM, read-out: % of Control): 0% | remaining activity at 75 µM ([4]; 75 μM, read-out: % of Control): 0% | remaining activity at 100 µM ([4]; 100 μM, read-out: % of Control): 0% | IC50 ([4]; [α-32P]dATP 3.12 μM, TTP and dGTP 1 mM): 8 µM | Inhibition of 293 cell telomerase, modified assay [4]: concentration-dependent inhibition
SMILES: Nc1ncnc2c1ccn2[C@H]1C[C@H](O)[C@@H](COP(=O)(O)OP(=O)(O)OP(=O)(O)O)O1 [NA023, 7-Deaza-2′-Deoxyadenosine-5′-Triphosphate]
Substrate of 293 Telomerase [3]: Is a substrate Produces short telomere Substrate Inhibition
